Measured values reported in patent US7863449B2, “Modulators of muscarinic receptors” (Vertex Pharmaceuticals Incorporated, priority 2004, dated 2011).

Tests used:
M4 muscarinic receptor = molecular target: T1, M4 muscarinic receptor (Homo sapiens, UniProt P08173); assay: Functional mobilization of intracellular calcium (FLIPR), M4-CHO cells; format: cell-based
T1 construct: expressed in transfected cells; host or cells: CHO (M4-CHO)
T1 sequence (P08173 1-479): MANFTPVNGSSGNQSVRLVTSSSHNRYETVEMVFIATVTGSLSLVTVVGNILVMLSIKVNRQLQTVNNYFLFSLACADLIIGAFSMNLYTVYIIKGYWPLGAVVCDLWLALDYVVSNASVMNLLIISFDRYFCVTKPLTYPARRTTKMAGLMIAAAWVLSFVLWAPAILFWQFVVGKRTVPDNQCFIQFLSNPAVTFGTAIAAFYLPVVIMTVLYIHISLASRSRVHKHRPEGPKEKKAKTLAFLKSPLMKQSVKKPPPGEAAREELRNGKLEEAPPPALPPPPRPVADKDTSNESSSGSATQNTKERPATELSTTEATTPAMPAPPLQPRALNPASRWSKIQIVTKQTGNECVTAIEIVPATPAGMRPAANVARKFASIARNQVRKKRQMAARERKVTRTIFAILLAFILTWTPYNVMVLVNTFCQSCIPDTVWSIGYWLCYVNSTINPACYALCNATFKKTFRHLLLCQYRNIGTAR
Outline: (§1)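 CHO cells expressing M1 or M4, loaded with Fluo-3 AM or Calcium 3 dye with 1 mM probenecid, 0.5% DMSO final. Agonist mode: compound added directly; antagonist mode: 15 min pre-incubation (or co-application) before carbachol at EC80. Fluorescence recorded 60 s on FLIPR.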

M1 muscarinic receptor = molecular target: T2, M1 muscarinic receptor (Homo sapiens, UniProt P11229); assay: Functional mobilization of intracellular calcium (FLIPR), M1-CHO cells; format: cell-based
T2 construct: expressed in transfected cells; host or cells: CHO (M1-CHO)
T2 sequence (P11229 1-460): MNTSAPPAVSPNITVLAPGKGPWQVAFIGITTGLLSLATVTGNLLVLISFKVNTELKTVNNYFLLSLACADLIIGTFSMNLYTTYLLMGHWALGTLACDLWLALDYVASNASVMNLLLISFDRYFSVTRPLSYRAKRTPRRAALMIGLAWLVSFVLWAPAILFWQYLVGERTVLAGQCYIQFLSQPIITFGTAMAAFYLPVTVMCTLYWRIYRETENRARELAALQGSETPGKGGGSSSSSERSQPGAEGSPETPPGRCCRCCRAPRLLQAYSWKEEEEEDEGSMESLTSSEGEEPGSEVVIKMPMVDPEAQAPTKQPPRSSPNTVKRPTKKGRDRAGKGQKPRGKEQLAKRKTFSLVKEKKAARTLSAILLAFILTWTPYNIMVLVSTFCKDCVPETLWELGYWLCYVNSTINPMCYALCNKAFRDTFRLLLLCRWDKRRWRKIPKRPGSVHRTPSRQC
Outline: as §1

[1] = 100% efficacy is the maximum response obtained using Carbachol as a control

CCOC(=O)N1C2CCC1CC(N1CCC3(CC1)CN(C(=O)NC1CCCCC1)Cc1ccccc13)C2 (stereo not shown) [compound 358]
Emax (M4 muscarinic receptor; [1]): 25 to 100%
M4 Activity (M4 muscarinic receptor; M4-CHO cells, FLIPR calcium mobilization): +++ (activity was measured to be less than 1.0 μM)
Emax (M1 muscarinic receptor; [1]): 25 to 100%
M1 Activity (M1 muscarinic receptor; M1-CHO cells, FLIPR calcium mobilization): +++ (activity was measured to be less than 1.0 μM)
